Experimental data as given in patent US20200165312A1, “COSMETIC COMPOSITION FOR IMPROVING SKIN CONDITIONS COMPRISING FUSION PROTEIN INCLUDING SKIN PENETRATION ENHANCING PEPTIDE” (LG HOUSEHOLD & HEALTH CARE LTD., priority 2017, published 2020).
Where a SMILES comes first, the peptide text is derived from it. Where no end group is shown, it is not given here. The star is where a group is joined. Palmitoyl = CCCCCCCCCCCCCCCC(=O)*

Key:
[1] = 2 μg in donor chamber, 16 hours, amount in receiver chamber relative to control peptide
[2] = amount present in the porcine skin by HPLC, relative to control peptide
[3] = system: C2C12 cells; experiment: Inhibition of muscle contraction: contractions of C2C12 cells co-cultured with neuroblasts; assay type: cell-based; conditions: 50 ppm, 2 hours, medium without FBS, counted for 30 seconds; FIG. 1
Description: Then, the number of contractions of the C2C12 cells was measured for 30 second at the initial stage of cell contraction and all of the medium was removed, followed by washing three times with PBS. The cells were reacted for 2 hours in a medium supplemented with 50 ppm of the fusion peptide without the FBS. Then, the number of contractions of the C2C12 cells was measured for 30 seconds to identify the degree of inhibiting muscle contraction.

[4] = system: human umbilical vein endothelial cells; experiment: Endothelial cell proliferation, Cell Counter Kit-8; assay type: cell-based; conditions: 100 ng/mL T-VEGF or VEGF, serum-free M199, one day; control = 100
Description: Specifically, human umbilical vein endothelial cells were inoculated onto a 96-well plate and cultured for 24 hours to obtain cultures at a density of 5,000 cells per well. The cultures were washed with PBS and cultured in a serum-free M199 medium for 16 hours. […] The cultures were obtained therefrom and a difference between proliferated amounts of cells was quantitively analyzed using the Cell Counter Kit-8 (Dojindo).
Specifically, human umbilical vein endothelial cells were inoculated onto a 96-well plate and cultured for 24 hours to obtain cultures at a density of 5,000 cells per well. The cultures were washed with PBS and cultured in a serum-free M199 medium for 16 hours. The cells were washed with PBS again and cultured in a serum-free M199 medium supplemented with 100 ng/mL T-Tβ4 or Tβ4 for one day. The cultures were obtained therefrom and a difference between proliferated amounts of cells was quantitively analyzed using the Cell Counter Kit-8 (Dojindo). Here, human umbilical vein endothelial cells cultured in a serum-free M199 medium without T-Tβ4 or Tβ4 were used as a control (Table 22).

[5] = system: dermal papilla cells; experiment: Hair follicle stem cell proliferation: dermal papilla cells, Cell Counter Kit-8; assay type: cell-based; conditions: 1 ng/mL T-VEGF or VEGF, one day; control = 100
Description: (§1) Specifically, dermal papilla cells were inoculated onto a 96-well plate and cultured for 24 hours to obtain cultures at a density of 6,000 cells per well. The cultures were washed with PBS and cultured in a serum-free DMEM medium for one day. The cells were washed with PBS again and cultured in a serum-free DMEM medium supplemented with 1 ng/mL T-PDGFa or PDGFa for one day. The cultures were obtained therefrom and a difference between proliferated amounts of cells was quantitively analyzed using the Cell Counter Kit-8 (Dojindo). Here, dermal papilla cells cultured in a serum-free DMEM medium without T-PDGFa or PDGFa were used as a control (Table 6).
Specifically, dermal papilla cells were inoculated onto a 96-well plate and cultured for 24 hours to obtain cultures at a density of 6,000 cells per well. The cultures were washed with PBS and cultured in a serum-free DMEM medium for one day. […] The cultures were obtained therefrom and a difference between proliferated amounts of cells was quantitively analyzed using the Cell Counter Kit-8 (Dojindo).
as §1, with “T-IGF-1” for “T-PDGFa”, “IGF-1” for “PDGFa”, “15).” for “6).”
as §1, with “10” for “1”, “T-KGF” for “T-PDGFa”, “KGF” for “PDGFa”, “19).” for “6).”
as §1, with “10” for “1”, “T-Tβ4” for “T-PDGFa”, “Tβ4” for “PDGFa”, “23).” for “6).”

[6] = system: dermal fibroblasts; experiment: Hyaluronic acid (HA) production in dermal fibroblasts (ELISA); assay type: cell-based, human; conditions: 10 ng/mL T-VEGF or VEGF, two days; control = 100
Description: (§2) Specifically, dermal fibroblasts were inoculated onto a 24-well plate and cultured for 24 hours to obtain cultures having a saturation degree of 70 to 80%. The cultures were washed with PBS and cultured in a serum-free DMEM medium including 10 ng/mL T-PDGFa or PDGFa for two days. A supernatant was obtained therefrom and the amount of hyaluronic acid (HA) produced and released in the culture solution was quantitively analyzed using an ELISA kit (R&D Systems) (Table 5).
as §2, with “The cultures were washed with PBS and cultured in a serum-free DMEM medium including 10 ng/mL T-PDGFa or PDGFa for two days.” left out, “9).” for “5).”

CCCCCCCCCCCCCCCC(=O)N[C@@H](Cc1ccc(O)cc1)C(=O)N1CCC[C@H]1C(=O)N[C@@H](Cc1c[nH]c2ccccc12)C(=O)N[C@H](C(=O)N[C@@H](CCC(N)=O)C(=O)N[C@@H](CCCNC(=N)N)C(=O)N[C@@H](Cc1ccccc1)C(=O)N[C@@H](CC(N)=O)C(=O)NCC(=O)N[C@@H](CO)C(=O)N[C@@H](CC(C)C)C(=O)N[C@@H](CC(N)=O)C(=O)N[C@H](C(=O)N[C@@H](Cc1c[nH]cn1)C(=O)N[C@@H](CC(C)C)C(=O)N[C@@H](C)C(=O)N1CCC[C@H]1C(=O)N[C@H](C(=O)N[C@@H](CC(C)C)C(=O)O)[C@@H](C)CC)[C@@H](C)O)[C@@H](C)O [Fusion protein including [Pal]YPWTQRF] (Palmitoyl-YPWTQRFNGSLNTHLAPIL-OH)
Penetration enhancement (%) [1]: 280 ± 15% | Relative penetration (%) [2]: 6290 ± 1350%

Acetyl-Glu-Glu-Met-Gln-Arg-Arg (Ac-EEMQRR) [Argireline ™, neurotransmitter release regulating peptide used as control peptide]
number of contractions of the C2C12 cells [3]: reduced

VEGF
Proliferation (%) [4]: 170 ± 10% | Proliferation (%) [5]: 340 ± 50% | Production (%) of hyaluronic acid (HA) [6]: 220 ± 20%
